Experimental data: patent US9168281B2, “Kit for treating a wound” (priority 2011, dated 2015)

Assays:
Experiment in all cases: Phenol Red Dextrose broth growth test of product containing CPC
Assay type in all cases: cell-based
Details in all cases: 37° C., 24 hours
Staph aureus (non MRSA) = tested on: Staph aureus (non MRSA)
Experimental: (§1) Phenol Red Dextrose broth tubes were prepared and a small loop of an organism cultured in peptone broth for 24 hours at 37° C. was used to inoculate the tubes in duplicate to a series of ten. […] The inoculated tubes were incubated at a temperature of 37° C. for 24 hours and growth of organism assessed compared to an inoculated tube without presence of product.

Staph aureus (MRSA) = tested on: Staph aureus (MRSA)
Experimental: as §1

Proteus vulgaris = tested on: Proteus vulgaris
Experimental: as §1

Strep equi = tested on: Strep equi
Experimental: as §1

Strep pyogenes = tested on: Strep pyogenes
Experimental: as §1

P. aeruginosa = tested on: P. aeruginosa
Experimental: as §1

Candida albicans = tested on: Candida albicans
Experimental: as §1

Measured: growth of organism

CCCCCCCCCCCCCCCC[n+]1ccccc1 [CPC, cetyl pyridinium chloride]
n/g: Staph aureus (non MRSA); 0.1 mL CPC (0.004% vol. comp) | Staph aureus (non MRSA); 0.2 mL CPC (0.008% vol. comp) | Staph aureus (non MRSA); 0.3 mL CPC (0.016% vol. comp) | Staph aureus (non MRSA); 0.4 mL CPC (0.032% vol. comp) | Staph aureus (non MRSA); 0.5 mL CPC (0.064% vol. comp) | Staph aureus (non MRSA); 0.6 mL CPC (0.128% vol. comp) | Staph aureus (non MRSA); 0.7 mL CPC (0.256% vol. comp) | Staph aureus (non MRSA); 0.8 mL CPC (0.512% vol. comp) | Staph aureus (non MRSA); 0.9 mL CPC (1.024% vol. comp) | Staph aureus (non MRSA); 1.0 mL CPC (2.048% vol. comp) | Staph aureus (MRSA); 0.1 mL CPC (0.004% vol. comp) | Staph aureus (MRSA); 0.2 mL CPC (0.008% vol. comp) | Staph aureus (MRSA); 0.3 mL CPC (0.016% vol. comp) | Staph aureus (MRSA); 0.4 mL CPC (0.032% vol. comp) | Staph aureus (MRSA); 0.5 mL CPC (0.064% vol. comp) | Staph aureus (MRSA); 0.6 mL CPC (0.128% vol. comp) | Staph aureus (MRSA); 0.7 mL CPC (0.256% vol. comp) | Staph aureus (MRSA); 0.8 mL CPC (0.512% vol. comp) | Staph aureus (MRSA); 0.9 mL CPC (1.024% vol. comp) | Staph aureus (MRSA); 1.0 mL CPC (2.048% vol. comp) | Proteus vulgaris; 0.1 mL CPC (0.004% vol. comp) | Proteus vulgaris; 0.2 mL CPC (0.008% vol. comp) | Proteus vulgaris; 0.3 mL CPC (0.016% vol. comp) | Proteus vulgaris; 0.4 mL CPC (0.032% vol. comp) | Proteus vulgaris; 0.5 mL CPC (0.064% vol. comp) | Proteus vulgaris; 0.6 mL CPC (0.128% vol. comp) | Proteus vulgaris; 0.7 mL CPC (0.256% vol. comp) | Proteus vulgaris; 0.8 mL CPC (0.512% vol. comp) | Proteus vulgaris; 0.9 mL CPC (1.024% vol. comp) | Proteus vulgaris; 1.0 mL CPC (2.048% vol. comp) | Strep equi; 0.1 mL CPC (0.004% vol. comp) | Strep equi; 0.2 mL CPC (0.008% vol. comp) | Strep equi; 0.3 mL CPC (0.016% vol. comp) | Strep equi; 0.4 mL CPC (0.032% vol. comp) | Strep equi; 0.5 mL CPC (0.064% vol. comp) | Strep equi; 0.6 mL CPC (0.128% vol. comp) | Strep equi; 0.7 mL CPC (0.256% vol. comp) | Strep equi; 0.8 mL CPC (0.512% vol. comp) | Strep equi; 0.9 mL CPC (1.024% vol. comp) | Strep equi; 1.0 mL CPC (2.048% vol. comp) | Strep pyogenes; 0.1 mL CPC (0.004% vol. comp) | Strep pyogenes; 0.2 mL CPC (0.008% vol. comp) | Strep pyogenes; 0.3 mL CPC (0.016% vol. comp) | Strep pyogenes; 0.4 mL CPC (0.032% vol. comp) | Strep pyogenes; 0.5 mL CPC (0.064% vol. comp) | Strep pyogenes; 0.6 mL CPC (0.128% vol. comp) | Strep pyogenes; 0.7 mL CPC (0.256% vol. comp) | Strep pyogenes; 0.8 mL CPC (0.512% vol. comp) | Strep pyogenes; 0.9 mL CPC (1.024% vol. comp) | Strep pyogenes; 1.0 mL CPC (2.048% vol. comp) | P. aeruginosa; 0.1 mL CPC (0.004% vol. comp) | P. aeruginosa; 0.2 mL CPC (0.008% vol. comp) | P. aeruginosa; 0.3 mL CPC (0.016% vol. comp) | P. aeruginosa; 0.4 mL CPC (0.032% vol. comp) | P. aeruginosa; 0.5 mL CPC (0.064% vol. comp) | P. aeruginosa; 0.6 mL CPC (0.128% vol. comp) | P. aeruginosa; 0.7 mL CPC (0.256% vol. comp) | P. aeruginosa; 0.8 mL CPC (0.512% vol. comp) | P. aeruginosa; 0.9 mL CPC (1.024% vol. comp) | P. aeruginosa; 1.0 mL CPC (2.048% vol. comp) | Candida albicans; 0.1 mL CPC (0.004% vol. comp) | Candida albicans; 0.2 mL CPC (0.008% vol. comp) | Candida albicans; 0.3 mL CPC (0.016% vol. comp) | Candida albicans; 0.4 mL CPC (0.032% vol. comp) | Candida albicans; 0.5 mL CPC (0.064% vol. comp) | Candida albicans; 0.6 mL CPC (0.128% vol. comp) | Candida albicans; 0.7 mL CPC (0.256% vol. comp) | Candida albicans; 0.8 mL CPC (0.512% vol. comp) | Candida albicans; 0.9 mL CPC (1.024% vol. comp) | Candida albicans; 1.0 mL CPC (2.048% vol. comp)
